Consider 19 molecules from article PMC6261295 (Journal of chromatography. A, 2018).

The term IC50 denotes the concentration that inhibits the measured activity by half. The Km is the concentration of substrate that gives half-maximal velocity.

For experiment [1], the target named is T1, Neuraminidase (from Clostridium perfringens, Type V) immobilized on magnetic beads (NA-MBs) (Clostridium perfringens, UniProt A0A0H2YQR1). The format is biochemical. As to conditions: 40 μM MUNANA, 37 °C, 3 min.
T1 sequence (A0A0H2YQR1 42-694 limits assumed): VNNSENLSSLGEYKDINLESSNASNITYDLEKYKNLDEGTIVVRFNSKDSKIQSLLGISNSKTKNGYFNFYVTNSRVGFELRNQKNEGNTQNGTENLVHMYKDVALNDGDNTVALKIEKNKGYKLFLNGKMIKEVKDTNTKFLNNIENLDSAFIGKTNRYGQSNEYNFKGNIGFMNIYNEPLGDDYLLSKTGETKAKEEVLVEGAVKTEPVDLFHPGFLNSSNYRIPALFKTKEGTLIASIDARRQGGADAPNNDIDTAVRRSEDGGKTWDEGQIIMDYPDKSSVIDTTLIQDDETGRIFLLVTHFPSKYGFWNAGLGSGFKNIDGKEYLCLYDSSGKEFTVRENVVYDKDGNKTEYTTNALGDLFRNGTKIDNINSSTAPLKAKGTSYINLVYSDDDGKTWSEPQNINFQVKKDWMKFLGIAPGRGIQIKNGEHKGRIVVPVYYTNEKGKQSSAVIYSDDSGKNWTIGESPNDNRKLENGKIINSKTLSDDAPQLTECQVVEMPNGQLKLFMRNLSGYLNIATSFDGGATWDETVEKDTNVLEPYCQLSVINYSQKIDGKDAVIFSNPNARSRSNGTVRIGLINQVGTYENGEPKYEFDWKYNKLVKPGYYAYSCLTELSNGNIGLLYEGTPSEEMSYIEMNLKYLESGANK
Experiment [2] addresses T1, Neuraminidase (from Clostridium perfringens, Type V) immobilized on magnetic beads (NA-MBs). In kind it is binding. As to conditions: 5.0 mg/mL ethyl acetate extract fraction of Flos Lonicerae, 37 °C, 1 h.
For experiment [3] the target is unchanged. In words: biochemical. As to conditions: for inhibition at 50 µM: 0.05 h, read-out: Inhibitory ratio (%).
The subject of experiment [4] is NA. As to conditions: cited from earlier work; for binder / non-binder for NA: known active/inactive compounds for NA.
The target in experiment [5] is T1, Neuraminidase (from Clostridium perfringens, Type V) immobilized on magnetic beads (NA-MBs). In kind it is biochemical.
In experiment [6] the test system is NA. To be noted: read-out: IC50, literature reported value; cited from earlier work.

Each structure is given as a SMILES string. Where a name gives a salt, the structure may show the parent alone.

For the molecule `O=C(/C=C/c1ccc(O)c(O)c1)OC1CC(O)(C(=O)O)CC(O)C1OC(=O)/C=C/c1ccc(O)c(O)c1` (centres unmarked) [3,4-di-O-caffeoylquinic acid], inhibition in experiment [1] was half-maximal at 68.3 ± 3.1 µM (IC50). Moreover, the “Retention on NA-MBs in ligand fishing” value in experiment [2] is on record as “retained until the final elution steps”. On the same counts, the results for `O=C(/C=C/c1ccc(O)c(O)c1)OC1CC(O)(C(=O)O)CC(OC(=O)/C=C/c2ccc(O)c(O)c2)C1O` (centres unmarked) [3,5-di-O-caffeoylquinic acid] are 61.2 ± 1.5 µM and “retained until the final elution steps”. Consider `O=C1CCC[C@@H]2[C@H]3CCC[N@+]4([O-])CCC[C@@H](CN12)[C@@H]34` [Ammothamnine], for which the “Inhibitory ratio (%)” value in experiment [3] (50 μM tested compound, 40 μM MUNANA, 5 mg NA-MBs, 37 °C, 3 min, 3% DMSO) is listed as under 1%. On to `Nc1cc[nH]c(=O)n1` [Cytosine], for which the inhibition at 50 µM in experiment [3] was under 1%.

On to `COc1ccc2c3c1O[C@H]1C[C@@H](O)C=C[C@@]31CCN(C)C2` [Galantamine, reference compound], for which the inhibition at 50 µM in experiment [3] was under 1%.

Consider `Nc1nc2c(ncn2[C@@H]2O[C@H](CO)[C@@H](O)[C@H]2O)c(=O)[nH]1` [Guanosine], for which the inhibition at 50 µM in experiment [3] was under 1%.

`O=c1c(O[C@@H]2O[C@H](CO)[C@H](O)[C@H](O)[C@H]2O)c(-c2ccc(O)c(O)c2)oc2cc(O)cc(O)c12` [Hyperoside]: the inhibition at 50 µM in experiment [3] was found to be 32.3 ± 2.7%. Consider `COc1cc(-c2oc3cc(O)cc(O)c3c(=O)c2O)ccc1O` [Isorhamnetin], for which, in experiment [3], the inhibition at 50 µM was 46.8 ± 5.8%. Still for that read-out and setting: the value for `COc1ccc(-c2oc3cc(O)cc(O)c3c(=O)c2O)cc1` [Kaempferide] was 43.6 ± 4.9%; that for `O=c1c(O)c(-c2ccc(O)cc2)oc2cc(O)cc(O)c12` [Kaempferol] was 51.2 ± 6.1%.

For the molecule `O[C@H]1[C@H]2c3cc4c(cc3CN3CCC(=C[C@@H]1O)[C@H]23)OCO4` [Lycorine], the inhibition at 50 µM in experiment [3] is under 1%. Also, the “binder / non-binder for NA” value in the experiment on NA [4] is given as “reported non-binders”.

With `CC(=O)N[C@H]1[C@H]([C@H](O)[C@H](O)CO)O[C@@](Oc2ccc3c(C)cc(=O)oc3c2)(C(=O)O)C[C@@H]1O` [MUNANA, 2′-(4-methylumbelliferyl)-α-D-N-acetylneuraminic acid sodium salt hydrate], the Km in experiment [5] is 46.5 ± 3.68 µM; with NA [4] (substrate on NA-immobilized capillary microreactor), 137 ± 10.8 µM. For `CCOC(=O)C1=C[C@@H](OC(CC)CC)[C@H](NC(C)=O)[C@@H](N)C1` [Oseltamivir], the inhibition at 50 µM in experiment [3] came out at 74.9 ± 3.5%. Moreover, in the experiment with NA [6], the IC50 was […]. Also, in the experiment on NA [4], the “binder / non-binder for NA” value was “known binder”. Turning to `O=C1CCC[C@@H]2[C@H]3CCC[N+]4([O-])CCC[C@@H](CN12)[C@@H]34` (some centres unmarked) [Oxymatrine], the inhibition at 50 µM in experiment [3] is under 1%. On the same count and under the same terms, next, `O=c1c(O)c(-c2ccc(O)c(O)c2)oc2cc(O)cc(O)c12` [Quercetin]: 48.1 ± 3.4%.

`Cc1c[nH]c(=O)[nH]c1=O` [Thymine]: the inhibition at 50 µM in experiment [3] was under 1%. In experiment [1], `O=c1cc(-c2ccc(O)c(O)c2)oc2cc(O[C@@H]3O[C@H](CO)[C@@H](O)[C@H](O)[C@H]3O)cc(O)c12` [luteolin-7-O-β-D-glucoside] displayed an IC50 of 76.5 ± 3.9 µM. The “Retention on NA-MBs in ligand fishing” value in experiment [2] is recorded as “retained until the final elution steps”. Consider `O=c1cc(-c2ccc(O)c(O)c2)oc2cc(O)cc(O)c12` [luteolin], for which the “Retention on NA-MBs in ligand fishing” value in experiment [2] is reported as “retained until the final elution steps”. For the molecule `O=C1CCC[C@@H]2[C@H]3CCCN4CCC[C@@H](CN12)[C@@H]34` [matrine], the “binder / non-binder for NA” value with NA [4] is given as “reported non-binders”.
